Where a name gives a salt, the structure may show the parent alone.
Tested on: β-lactamase producing bacteria
Assay: Test Example 1: MIC of meropenem (MEPM) combined with test compound at fixed 4 μg/mL, broth microdilution
Type: cell-based
Conditions: relative to MEPM alone
Method: Test Example 1: Evaluation of Minimum Inhibitory Concentration (MIC) of MEPM Against β-Lactamase Producing Bacteria
To evaluate the β-lactamase inhibitory activity of test compounds, the effect of combination of a test compound and a β-lactam agent against β-lactamase producing bacteria was evaluated. Meropenem (MEPM) was used as a β-lactam antimicrobial agent. The minimum inhibitory concentration (MIC) of MEPM against β-lactamase producing bacteria when a test compound was added at a fixed concentration (4 μg/mL) was measured by broth microdilution method (common ratio: 2). MIC of MEPM decreasing to less than 1/32 in combination with a test compound is indicated by A, decreasing from 1/32 to 1/16 is indicated by B, decreasing from ⅛ to ¼ is indicated by C, and decreasing to ½ or others are indicated by D. “-” represents untested cases.

| Structure (SMILES) | Decrease of MIC of MEPM in combination with a test compound, E. coli ATCC BAA-2340 (KPC) | Decrease of MIC of MEPM in combination with a test compound, K. pneumoniae ATCC BAA-2344 (KPC) | Decrease of MIC of MEPM in combination with a test compound, K. pneumoniae ATCC BAA-2524 (OXA-48) |
| --- | --- | --- | --- |
| CS(=O)(=O)N1CC(Oc2ccc3c(c2C(=O)O)OB(O)CC3)C1 [Example 3, 2-hydroxy-7-{[1-(methanesulfonyl)azetidin-3-yl]oxy}-3,4-dihydro-2H-1,2-benzoxaborinine-8-carboxylic] | A (MIC of MEPM decreasing to less than 1/32 in combination with a test compound is indicated by A) | A (MIC of MEPM decreasing to less than 1/32 in combination with a test compound is indicated by A) | B (decreasing from 1/32 to 1/16 is indicated by B) |
| O=C(O)c1c(OC2CN(C(=O)Cc3ccccc3)C2)ccc2c1O[B-](O)(O)CC2 [Example 20, 4,4-dihydroxy-8-{[1-(phenylacetyl)azetidin-3-yl]oxy}-5-oxa-4-boranuidabicyclo[4.4.0]deca-l(6),7,9-triene-7-carboxylic acid disodium salt] | A (MIC of MEPM decreasing to less than 1/32 in combination with a test compound is indicated by A) | B (decreasing from 1/32 to 1/16 is indicated by B) | B (decreasing from 1/32 to 1/16 is indicated by B) |
| O=C(O)c1c(OC2CN(C(=O)Cn3cncn3)C2)ccc2c1O[B-](O)(O)CC2 [Example 18, 4,4-dihydroxy-8-({1-[(1H-1,2,4-triazol-1-yl)acetyl]azetidin-3-yl}oxy)-5-oxa-4-boranuidabicyclo[4.4.0]deca-l(6),7,9-triene-7-carboxylic acid disodium salt] | A (MIC of MEPM decreasing to less than 1/32 in combination with a test compound is indicated by A) | A (MIC of MEPM decreasing to less than 1/32 in combination with a test compound is indicated by A) | B (decreasing from 1/32 to 1/16 is indicated by B) |
| O=C(O)c1c(OC2CN(C(=O)CCc3ccccc3)C2)ccc2c1O[B-](O)(O)CC2 [Example 21, 4,4-dihydroxy-8-{[1-(3-phenylpropanoyl)azetidin-3-yl]oxy}-5-oxa-4-boranuidabicyclo[4.4.0]deca-l(6),7,9-triene-7-carboxylic acid disodium salt] | A (MIC of MEPM decreasing to less than 1/32 in combination with a test compound is indicated by A) | B (decreasing from 1/32 to 1/16 is indicated by B) | C (decreasing from ⅛ to ¼ is indicated by C) |
| O=C(O)c1c(OC2CN(C(=O)Cn3ccnc3)C2)ccc2c1O[B-](O)(O)CC2 [Example 22, 4,4-dihydroxy-8-({1-[(1H-imidazol-1-yl)acetyl]azetidin-3-yl}oxy)-5-oxa-4-boranuidabicyclo[4.4.0]deca-l(6),7,9-triene-7-carboxylic acid disodium salt] | A (MIC of MEPM decreasing to less than 1/32 in combination with a test compound is indicated by A) | A (MIC of MEPM decreasing to less than 1/32 in combination with a test compound is indicated by A) | B (decreasing from 1/32 to 1/16 is indicated by B) |
| O=C(O)c1c(OC2CN(C(=O)Cc3ccc(O)cc3)C2)ccc2c1O[B-](O)(O)CC2 [Example 17, 4,4-dihydroxy-8-({1-[(4-hydroxyphenyl)acetyl]azetidin-3-yl}oxy)-5-oxa-4-boranuidabicyclo[4.4.0]deca-l(6),7,9-triene-7-carboxylic acid disodium salt] | A (MIC of MEPM decreasing to less than 1/32 in combination with a test compound is indicated by A) | B (decreasing from 1/32 to 1/16 is indicated by B) | B (decreasing from 1/32 to 1/16 is indicated by B) |
| O=C(O)c1c(OC2CN(C(=O)Cc3cccnc3)C2)ccc2c1O[B-](O)(O)CC2 [Example 14, 4,4-dihydroxy-8-({1-[(pyridin-3-yl)acetyl]azetidin-3-yl}oxy)-5-oxa-4-boranuidabicyclo[4.4.0]deca-l(6),7,9-triene-7-carboxylic acid disodium salt] | A (MIC of MEPM decreasing to less than 1/32 in combination with a test compound is indicated by A) | A (MIC of MEPM decreasing to less than 1/32 in combination with a test compound is indicated by A) | B (decreasing from 1/32 to 1/16 is indicated by B) |
| N[C@@H](Cc1cnc[nH]1)C(=O)N1CC(Oc2ccc3c(c2C(=O)O)O[B-](O)(O)CC3)C1 [Example 29, 8-[(1-L-histidylazetidin-3-yl)oxy]-4,4-dihydroxy-5-oxa-4-boranuidabicyclo[4.4.0]deca-l(6),7,9-triene-7-carboxylic acid disodium salt] |  | A (MIC of MEPM decreasing to less than 1/32 in combination with a test compound is indicated by A) | B (decreasing from 1/32 to 1/16 is indicated by B) |
| O=C(O)c1c(OC2CN(C(=O)c3ccc(O)c(O)c3)C2)ccc2c1OB(O)CC2 [Example 34, 7-{[1-(3,4-dihydroxybenzoyl)azetidin-3-yl]oxy}-2-hydroxy-3,4-dihydro-2H-1,2-benzoxaborinine-8-carboxylic acid] |  | A (MIC of MEPM decreasing to less than 1/32 in combination with a test compound is indicated by A) | B (decreasing from 1/32 to 1/16 is indicated by B) |
| O=C(O)c1c(OC2CN(C(=O)c3nc[nH]n3)C2)ccc2c1O[B-](O)(O)CC2 [Example 8, 4,4-dihydroxy-8-{[1-(1H-1,2,4-triazole-3-carbonyl)azetidin-3-yl]oxy}-5-oxa-4-boranuidabicyclo[4.4.0]deca-l(6),7,9-triene-7-carboxylic acid disodium salt] | A (MIC of MEPM decreasing to less than 1/32 in combination with a test compound is indicated by A) | A (MIC of MEPM decreasing to less than 1/32 in combination with a test compound is indicated by A) | B (decreasing from 1/32 to 1/16 is indicated by B) |
| N[C@@H](C(=O)N1CC(Oc2ccc3c(c2C(=O)O)O[B-](O)(O)CC3)C1)c1ccccc1 [Example 10, 8-({1-[(2R)-2-amino-2-phenylacetyl]azetidin-3-yl}oxy)-4,4-dihydroxy-5-oxa-4-boranuidabicyclo[4.4.0]deca-l(6),7,9-triene-7-carboxylic acid disodium salt] | A (MIC of MEPM decreasing to less than 1/32 in combination with a test compound is indicated by A) | A (MIC of MEPM decreasing to less than 1/32 in combination with a test compound is indicated by A) | B (decreasing from 1/32 to 1/16 is indicated by B) |
| O=C(O)c1c(OC2CN(C(=O)c3cccnc3)C2)ccc2c1O[B-](O)(O)CC2 [Example 12, 4,4-dihydroxy-8-{[1-(pyridine-3-carbonyl)azetidin-3-yl]oxy}-5-oxa-4-boranuidabicyclo[4.4.0]deca-l(6),7,9-triene-7-carboxylic acid disodium salt] | A (MIC of MEPM decreasing to less than 1/32 in combination with a test compound is indicated by A) | A (MIC of MEPM decreasing to less than 1/32 in combination with a test compound is indicated by A) | B (decreasing from 1/32 to 1/16 is indicated by B) |
| NCCc1cn(CC(=O)N2CC(Oc3ccc4c(c3C(=O)O)O[B-](O)(O)CC4)C2)cn1 [Example 33, 8-[(1-{[4-(2-aminoethyl)-1H-imidazol-1-yl]acetyl}azetidin-3-yl)oxy]-4,4-dihydroxy-5-oxa-4-boranuidabicyclo[4.4.0]deca-l(6),7,9-triene-7-carboxylic acid disodium salt] |  | A (MIC of MEPM decreasing to less than 1/32 in combination with a test compound is indicated by A) | B (decreasing from 1/32 to 1/16 is indicated by B) |
| O=C(O)c1c(OC2CN(C(=O)[C@@H]3CCCN3)C2)ccc2c1O[B-](O)(O)CC2 [Example 32, 4,4-dihydroxy-8-[(1-L-prolylazetidin-3-yl)oxy]-5-oxa-4-boranuidabicyclo[4.4.0]deca-l(6),7,9-triene-7-carboxylic acid disodium salt] |  | A (MIC of MEPM decreasing to less than 1/32 in combination with a test compound is indicated by A) | B (decreasing from 1/32 to 1/16 is indicated by B) |

Reference: patent publication US11066425B1, “Oxo-substituted compound” (SUMITOMO DAINIPPON PHARMA CO., LTD., priority 2018, dated 2021)
